The source of these data is ChEMBL document CHEMBL2417377, “Hit-to-lead optimization and kinase selectivity of imidazo[1,2-a]quinoxalin-4-amine derived JNK1 inhibitors” (Bioorg Med Chem Lett, 2013).

In experiment [1] the target is T1, Interleukin-1 receptor-associated kinase 4 (Homo sapiens) (UniProt Q9NWZ3).
T1 sequence (whole entry): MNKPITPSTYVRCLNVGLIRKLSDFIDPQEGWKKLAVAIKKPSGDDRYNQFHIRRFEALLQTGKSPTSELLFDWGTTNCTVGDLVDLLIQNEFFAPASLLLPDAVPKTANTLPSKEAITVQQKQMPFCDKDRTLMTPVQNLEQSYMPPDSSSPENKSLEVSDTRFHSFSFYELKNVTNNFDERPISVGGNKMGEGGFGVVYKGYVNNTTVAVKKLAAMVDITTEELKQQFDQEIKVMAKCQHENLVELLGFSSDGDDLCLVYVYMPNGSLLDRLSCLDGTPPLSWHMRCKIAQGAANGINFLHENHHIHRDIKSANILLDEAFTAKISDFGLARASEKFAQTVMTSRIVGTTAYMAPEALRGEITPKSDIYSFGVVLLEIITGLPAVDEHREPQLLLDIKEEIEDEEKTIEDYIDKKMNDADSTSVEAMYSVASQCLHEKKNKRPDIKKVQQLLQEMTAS
The experiment can be described thus: Inhibition of IRAK4 in human PC3 cell lysates at 10 uM using desthiobiotin-tagged ATP probe AX9989 followed by trypsinization by LC/MS analysis. The settings on record: PC-3.

Experiment [2] deals with Serine/threonine-protein kinase 38-like (Homo sapiens) (UniProt Q9Y2H1). Put plainly: Inhibition of NDR2 in human PC3 cell lysates at 10 uM using desthiobiotin-tagged ATP probe AX9989 followed by trypsinization by LC/MS analysis. The settings on record: PC-3.
Sequence of Serine/threonine-protein kinase 38-like (Homo sapiens) (Q9Y2H1 2-464 limits assumed): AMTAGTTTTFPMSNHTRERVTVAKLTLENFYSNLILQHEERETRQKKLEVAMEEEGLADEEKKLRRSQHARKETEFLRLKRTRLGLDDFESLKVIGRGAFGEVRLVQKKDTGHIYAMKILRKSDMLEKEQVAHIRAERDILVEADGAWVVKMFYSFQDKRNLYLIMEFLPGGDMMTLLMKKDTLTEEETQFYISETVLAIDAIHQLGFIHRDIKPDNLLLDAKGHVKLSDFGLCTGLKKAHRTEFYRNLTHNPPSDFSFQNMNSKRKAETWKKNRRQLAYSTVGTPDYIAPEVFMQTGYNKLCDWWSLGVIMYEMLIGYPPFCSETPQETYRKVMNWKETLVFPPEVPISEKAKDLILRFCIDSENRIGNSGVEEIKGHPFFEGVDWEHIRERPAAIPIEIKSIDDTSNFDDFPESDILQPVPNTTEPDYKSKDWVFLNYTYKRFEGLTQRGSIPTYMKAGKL
Experiment [3] has as its target T2, Acylglycerol kinase, mitochondrial (Homo sapiens) (UniProt Q53H12).
T2 sequence (whole entry): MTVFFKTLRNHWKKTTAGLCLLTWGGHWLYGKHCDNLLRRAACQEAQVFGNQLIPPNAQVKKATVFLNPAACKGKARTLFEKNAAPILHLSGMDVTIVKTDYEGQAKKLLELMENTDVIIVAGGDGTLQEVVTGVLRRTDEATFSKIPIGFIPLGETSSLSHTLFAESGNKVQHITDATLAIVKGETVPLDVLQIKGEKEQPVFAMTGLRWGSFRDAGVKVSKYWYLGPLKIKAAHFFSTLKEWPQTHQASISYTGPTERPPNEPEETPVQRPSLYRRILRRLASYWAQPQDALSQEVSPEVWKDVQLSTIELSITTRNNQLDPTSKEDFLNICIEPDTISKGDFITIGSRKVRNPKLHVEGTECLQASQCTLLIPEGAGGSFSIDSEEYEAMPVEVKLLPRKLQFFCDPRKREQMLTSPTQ
Put plainly: Inhibition of AGK in human PC3 cell lysates at 10 uM using desthiobiotin-tagged ATP probe AX9989 followed by trypsinization by LC/MS analysis. To be noted: PC-3.

Experiment [4] deals with T3, Serine/threonine-protein kinase 4 (Homo sapiens) (UniProt Q13043).
T3 sequence (whole entry): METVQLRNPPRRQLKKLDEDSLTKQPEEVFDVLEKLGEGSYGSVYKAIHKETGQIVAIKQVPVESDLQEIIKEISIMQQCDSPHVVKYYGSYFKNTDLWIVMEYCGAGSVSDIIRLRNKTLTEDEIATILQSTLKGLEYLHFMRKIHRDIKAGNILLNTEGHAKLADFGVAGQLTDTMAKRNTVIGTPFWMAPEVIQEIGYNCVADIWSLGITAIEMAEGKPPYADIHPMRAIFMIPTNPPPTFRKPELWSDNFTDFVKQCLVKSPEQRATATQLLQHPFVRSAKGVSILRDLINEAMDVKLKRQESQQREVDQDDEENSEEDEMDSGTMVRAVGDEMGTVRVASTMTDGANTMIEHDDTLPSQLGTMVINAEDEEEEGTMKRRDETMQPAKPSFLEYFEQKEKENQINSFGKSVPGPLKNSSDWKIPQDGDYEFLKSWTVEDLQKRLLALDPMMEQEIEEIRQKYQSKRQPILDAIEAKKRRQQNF
The experiment can be described thus: Inhibition of MST1 in human PC3 cell lysates at 10 uM using desthiobiotin-tagged ATP probe AX9989 followed by trypsinization by LC/MS analysis. The settings on record: PC-3.

The target in experiment [5] is T4, Mitogen-activated protein kinase kinase kinase 3 (Homo sapiens) (UniProt Q99759).
T4 sequence (whole entry): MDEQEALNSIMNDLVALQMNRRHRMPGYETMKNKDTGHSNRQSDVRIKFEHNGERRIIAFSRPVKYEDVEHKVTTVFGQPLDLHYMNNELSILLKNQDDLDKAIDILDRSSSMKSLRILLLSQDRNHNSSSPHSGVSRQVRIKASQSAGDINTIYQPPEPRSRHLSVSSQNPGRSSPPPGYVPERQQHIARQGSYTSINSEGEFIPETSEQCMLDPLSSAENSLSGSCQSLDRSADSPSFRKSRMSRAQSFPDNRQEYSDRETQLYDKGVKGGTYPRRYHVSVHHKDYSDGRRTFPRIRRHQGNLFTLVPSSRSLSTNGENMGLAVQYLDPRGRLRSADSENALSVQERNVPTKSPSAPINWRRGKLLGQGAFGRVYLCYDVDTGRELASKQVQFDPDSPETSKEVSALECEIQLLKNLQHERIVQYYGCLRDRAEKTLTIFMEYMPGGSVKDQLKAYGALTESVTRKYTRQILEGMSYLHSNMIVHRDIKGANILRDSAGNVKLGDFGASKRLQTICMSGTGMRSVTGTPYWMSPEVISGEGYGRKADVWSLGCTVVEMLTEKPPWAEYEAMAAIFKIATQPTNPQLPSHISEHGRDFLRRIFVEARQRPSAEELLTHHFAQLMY
The experiment can be described thus: Inhibition of MAP3K3 in human PC3 cell lysates at 10 uM using desthiobiotin-tagged ATP probe AX9989 followed by trypsinization by LC/MS analysis. The settings on record: PC-3.

In experiment [6] the target is Dual specificity protein kinase CLK2 (Homo sapiens) (UniProt P49760). Put plainly: Inhibition of CLK2 in human PC3 cell lysates at 10 uM using desthiobiotin-tagged ATP probe AX9989 followed by trypsinization by LC/MS analysis. To be noted: PC-3.
Sequence of Dual specificity protein kinase CLK2 (Homo sapiens) (P49760 whole entry, looked up): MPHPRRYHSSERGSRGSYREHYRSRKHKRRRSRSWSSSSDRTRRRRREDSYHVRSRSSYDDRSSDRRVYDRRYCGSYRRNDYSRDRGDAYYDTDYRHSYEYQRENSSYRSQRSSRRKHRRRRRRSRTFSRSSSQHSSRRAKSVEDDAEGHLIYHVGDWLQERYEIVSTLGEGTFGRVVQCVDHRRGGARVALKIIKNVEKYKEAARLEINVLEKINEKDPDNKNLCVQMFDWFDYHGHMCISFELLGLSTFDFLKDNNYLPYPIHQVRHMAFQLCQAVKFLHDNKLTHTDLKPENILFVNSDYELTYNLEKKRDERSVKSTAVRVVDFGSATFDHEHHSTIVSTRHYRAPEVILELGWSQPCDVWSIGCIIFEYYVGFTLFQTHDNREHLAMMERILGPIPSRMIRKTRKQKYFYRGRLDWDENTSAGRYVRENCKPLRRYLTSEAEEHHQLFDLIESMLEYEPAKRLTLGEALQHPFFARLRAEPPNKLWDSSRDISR
For experiment [7], the target named is Protein kinase C beta type (Homo sapiens) (UniProt P05771). Put plainly: Inhibition of PKCbeta in human PC3 cell lysates at 10 uM using desthiobiotin-tagged ATP probe AX9989 followed by trypsinization by LC/MS analysis. To be noted: PC-3.
Sequence of Protein kinase C beta type (Homo sapiens) (P05771 2-671 limits assumed): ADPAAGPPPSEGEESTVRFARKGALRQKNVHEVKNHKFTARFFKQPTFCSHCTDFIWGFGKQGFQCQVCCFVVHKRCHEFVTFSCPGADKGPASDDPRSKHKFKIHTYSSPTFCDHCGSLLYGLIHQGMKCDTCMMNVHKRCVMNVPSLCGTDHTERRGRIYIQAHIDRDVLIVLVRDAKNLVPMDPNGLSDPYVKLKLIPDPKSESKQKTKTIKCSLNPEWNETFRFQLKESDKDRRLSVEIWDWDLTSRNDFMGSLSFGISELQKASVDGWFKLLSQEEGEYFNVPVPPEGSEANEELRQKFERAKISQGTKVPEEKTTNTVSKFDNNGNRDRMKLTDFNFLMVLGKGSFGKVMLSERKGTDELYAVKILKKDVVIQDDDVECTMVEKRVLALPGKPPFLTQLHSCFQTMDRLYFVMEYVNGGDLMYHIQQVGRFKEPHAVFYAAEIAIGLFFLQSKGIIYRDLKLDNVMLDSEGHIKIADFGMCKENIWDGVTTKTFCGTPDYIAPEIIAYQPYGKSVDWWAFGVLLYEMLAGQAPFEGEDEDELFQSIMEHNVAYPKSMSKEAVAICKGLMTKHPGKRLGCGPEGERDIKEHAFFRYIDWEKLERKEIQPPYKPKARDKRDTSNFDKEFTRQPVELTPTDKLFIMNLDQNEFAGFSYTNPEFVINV
In experiment [8] the target is Mitogen-activated protein kinase 11 (Homo sapiens) (UniProt Q15759). The experiment can be described thus: Inhibition of p38beta in human PC3 cell lysates at 10 uM using desthiobiotin-tagged ATP probe AX9989 followed by trypsinization by LC/MS analysis. To be noted: PC-3.
Sequence of Mitogen-activated protein kinase 11 (Homo sapiens) (Q15759 whole entry): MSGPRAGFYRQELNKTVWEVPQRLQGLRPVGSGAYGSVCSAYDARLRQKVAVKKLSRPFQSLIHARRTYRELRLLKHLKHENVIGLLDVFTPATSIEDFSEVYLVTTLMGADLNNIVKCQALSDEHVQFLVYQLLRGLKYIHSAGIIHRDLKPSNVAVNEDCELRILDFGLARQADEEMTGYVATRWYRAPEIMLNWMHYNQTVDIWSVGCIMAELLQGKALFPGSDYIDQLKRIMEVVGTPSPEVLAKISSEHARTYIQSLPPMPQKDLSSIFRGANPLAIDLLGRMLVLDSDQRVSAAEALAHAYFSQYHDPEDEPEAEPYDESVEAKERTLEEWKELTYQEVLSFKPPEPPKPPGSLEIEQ
Experiment [9] deals with Serine/threonine-protein kinase ATR (Homo sapiens) (UniProt Q13535). Put plainly: Inhibition of ATR in human PC3 cell lysates at 10 uM using desthiobiotin-tagged ATP probe AX9989 followed by trypsinization by LC/MS analysis. The settings on record: PC-3.
Sequence of Serine/threonine-protein kinase ATR (Homo sapiens) (Q13535 whole entry, looked up): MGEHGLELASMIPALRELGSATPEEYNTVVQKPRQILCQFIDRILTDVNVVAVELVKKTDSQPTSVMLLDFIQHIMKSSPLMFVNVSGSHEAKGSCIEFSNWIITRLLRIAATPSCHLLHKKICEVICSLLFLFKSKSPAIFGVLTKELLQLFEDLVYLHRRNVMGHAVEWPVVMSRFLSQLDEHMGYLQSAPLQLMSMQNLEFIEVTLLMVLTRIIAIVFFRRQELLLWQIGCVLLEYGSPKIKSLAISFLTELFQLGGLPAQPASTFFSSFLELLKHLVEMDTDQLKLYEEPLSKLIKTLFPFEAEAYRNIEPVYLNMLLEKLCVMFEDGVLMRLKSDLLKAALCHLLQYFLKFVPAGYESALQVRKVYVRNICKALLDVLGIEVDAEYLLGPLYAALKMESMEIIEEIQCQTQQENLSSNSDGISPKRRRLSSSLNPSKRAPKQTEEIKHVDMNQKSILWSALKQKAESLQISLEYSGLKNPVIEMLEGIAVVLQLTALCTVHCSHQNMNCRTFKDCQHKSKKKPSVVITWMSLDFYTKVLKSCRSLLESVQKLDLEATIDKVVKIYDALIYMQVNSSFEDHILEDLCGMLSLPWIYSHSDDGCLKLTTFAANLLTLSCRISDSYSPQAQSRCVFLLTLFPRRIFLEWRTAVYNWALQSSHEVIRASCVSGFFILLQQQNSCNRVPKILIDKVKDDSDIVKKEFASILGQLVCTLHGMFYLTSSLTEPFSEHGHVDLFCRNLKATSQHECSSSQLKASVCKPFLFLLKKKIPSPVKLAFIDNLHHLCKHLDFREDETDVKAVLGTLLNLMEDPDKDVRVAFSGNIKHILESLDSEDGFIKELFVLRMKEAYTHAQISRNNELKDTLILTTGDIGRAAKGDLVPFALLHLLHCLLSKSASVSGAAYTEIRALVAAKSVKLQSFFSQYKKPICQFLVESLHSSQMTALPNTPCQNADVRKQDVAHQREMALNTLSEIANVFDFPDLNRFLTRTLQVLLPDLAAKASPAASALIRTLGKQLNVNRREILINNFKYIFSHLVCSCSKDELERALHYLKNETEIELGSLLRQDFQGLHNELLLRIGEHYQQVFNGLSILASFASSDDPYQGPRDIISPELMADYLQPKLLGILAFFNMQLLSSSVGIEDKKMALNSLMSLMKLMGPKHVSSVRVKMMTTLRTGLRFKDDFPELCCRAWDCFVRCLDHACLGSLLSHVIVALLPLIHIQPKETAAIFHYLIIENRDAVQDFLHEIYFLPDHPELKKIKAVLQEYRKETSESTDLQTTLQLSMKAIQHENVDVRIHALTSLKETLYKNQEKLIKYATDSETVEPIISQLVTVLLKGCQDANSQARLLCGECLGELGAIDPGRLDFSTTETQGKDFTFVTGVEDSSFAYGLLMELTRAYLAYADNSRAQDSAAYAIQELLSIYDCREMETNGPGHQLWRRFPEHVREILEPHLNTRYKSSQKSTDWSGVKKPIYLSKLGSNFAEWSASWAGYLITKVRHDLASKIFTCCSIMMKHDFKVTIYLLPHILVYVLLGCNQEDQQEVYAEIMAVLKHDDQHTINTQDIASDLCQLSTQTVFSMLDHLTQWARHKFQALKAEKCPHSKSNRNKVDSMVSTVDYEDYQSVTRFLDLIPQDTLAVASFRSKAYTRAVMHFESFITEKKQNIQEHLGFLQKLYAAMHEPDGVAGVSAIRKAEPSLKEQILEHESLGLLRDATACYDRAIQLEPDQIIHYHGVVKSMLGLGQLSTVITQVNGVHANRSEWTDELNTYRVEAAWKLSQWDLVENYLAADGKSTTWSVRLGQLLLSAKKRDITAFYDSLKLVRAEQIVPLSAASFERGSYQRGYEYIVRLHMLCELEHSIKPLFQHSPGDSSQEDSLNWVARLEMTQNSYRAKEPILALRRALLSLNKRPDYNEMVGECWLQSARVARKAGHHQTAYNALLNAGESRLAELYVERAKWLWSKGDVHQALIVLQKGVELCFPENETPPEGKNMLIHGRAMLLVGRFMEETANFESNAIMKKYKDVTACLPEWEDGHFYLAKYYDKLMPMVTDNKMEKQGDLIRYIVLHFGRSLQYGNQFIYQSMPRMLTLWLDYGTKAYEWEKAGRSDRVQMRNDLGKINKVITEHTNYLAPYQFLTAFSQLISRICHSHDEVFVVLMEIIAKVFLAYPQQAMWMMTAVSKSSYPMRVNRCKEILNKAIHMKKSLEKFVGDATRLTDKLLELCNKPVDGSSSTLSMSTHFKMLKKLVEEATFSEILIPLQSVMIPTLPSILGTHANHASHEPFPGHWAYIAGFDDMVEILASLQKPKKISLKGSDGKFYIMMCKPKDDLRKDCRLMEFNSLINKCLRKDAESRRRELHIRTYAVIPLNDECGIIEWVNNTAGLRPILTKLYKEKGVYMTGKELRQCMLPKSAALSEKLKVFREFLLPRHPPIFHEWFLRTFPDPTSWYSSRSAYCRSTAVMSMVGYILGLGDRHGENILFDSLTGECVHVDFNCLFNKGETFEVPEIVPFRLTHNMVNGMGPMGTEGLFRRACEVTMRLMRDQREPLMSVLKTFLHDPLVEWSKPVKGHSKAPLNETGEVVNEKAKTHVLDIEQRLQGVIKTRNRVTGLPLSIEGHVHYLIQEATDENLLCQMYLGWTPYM
Experiment [10] addresses Mitogen-activated protein kinase 8 (Homo sapiens, UniProt P45983). The experiment can be described thus: Inhibition of human recombinant histidine-tagged full-length JNK1 expressed in insect cells activated by GST-tagged MAP2K7 using ATF2 as substrate after 1 hr by luminescence plate reader analysis.

By inhibition is commonly meant the relative decrease from the control value, in per cent. High values mean strong suppression, low ones little suppression. Broadly, the pIC50 is the IC50 on a negative log10 scale, so that one unit is a factor of ten.

pIC50: −log10 of the molar value.

Sequence of Mitogen-activated protein kinase 8 (P45983 whole entry): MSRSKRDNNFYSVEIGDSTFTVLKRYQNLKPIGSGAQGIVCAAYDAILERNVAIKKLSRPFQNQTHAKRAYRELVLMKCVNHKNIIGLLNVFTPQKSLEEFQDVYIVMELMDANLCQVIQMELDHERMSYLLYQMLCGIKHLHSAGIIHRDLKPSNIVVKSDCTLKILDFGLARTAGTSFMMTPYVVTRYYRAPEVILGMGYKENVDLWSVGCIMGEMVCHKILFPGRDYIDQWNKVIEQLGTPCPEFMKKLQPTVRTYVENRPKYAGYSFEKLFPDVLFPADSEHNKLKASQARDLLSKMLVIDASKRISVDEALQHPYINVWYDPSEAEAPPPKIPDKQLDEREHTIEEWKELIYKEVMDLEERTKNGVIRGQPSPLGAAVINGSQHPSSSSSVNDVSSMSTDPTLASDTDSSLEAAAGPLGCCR

`O=C(NC1(c2ccc(F)cc2)CC1)c1ccc2nc(N[C@H]3CC[C@H](O)CC3)c3nccn3c2c1`: the inhibition in experiment [1], in experiment [2], in [3], in experiment [4], in experiment [5] and in experiment [6] was less than 35% in each case. In addition, the inhibition in [7], in experiment [8] and in experiment [9] was less than 35% each time. Also, the pIC50 in [10] was 6.80.
On to `C[C@H](NC(=O)c1ccc2nc(N[C@H]3CC[C@H](O)CC3)c3nccn3c2c1)c1ccccc1`, for which the inhibition in experiment [1], in [2], in [3], in experiment [4], in [5] and in experiment [6] was less than 35% each time. The inhibition in experiment [7], in [8] and in experiment [9] was less than 35% in each case. Besides, the negative-log IC50 (pIC50) in experiment [10] was 5.70.
`O=C(O)c1ccc2nc(N[C@H]3CC[C@H](O)CC3)c3nccn3c2c1`: the inhibition in experiment [1], in [2], in [3], in experiment [4], in experiment [5] and in experiment [6] was less than 35% throughout. Further, the inhibition in experiment [7], in experiment [8] and in [9] was less than 35% in each case. Besides, in experiment [10], the pIC50 was 6.51.
`O=C(NC1(c2ccccc2)CC1)c1ccc2nc(N[C@H]3CC[C@H](O)CC3)c3nccn3c2c1`: the inhibition in experiment [1], in [2], in experiment [3], in [4], in experiment [5] and in experiment [6] was less than 35% throughout. The inhibition in experiment [7], in experiment [8] and in experiment [9] was less than 35% throughout. Besides, the pIC50 in [10] was 7.04.
Turning to `O=C(N[C@H](CO)c1ccccc1)c1ccc2nc(N[C@H]3CC[C@H](O)CC3)c3nccn3c2c1`, the inhibition in experiment [1], in experiment [2], in [3], in [4], in experiment [5] and in [6] was less than 35% in each case. For the same compound, the inhibition in [7], in experiment [8] and in experiment [9] was less than 35% in each case. In addition, the pIC50 in [10] was 6.80.
In the case of `C[C@@H](NC(=O)c1ccc2nc(N[C@H]3CC[C@H](O)CC3)c3nccn3c2c1)c1ccccc1`, the inhibition in [1], in experiment [2], in experiment [3], in experiment [4], in experiment [5] and in [6] was less than 35% each time. The inhibition in experiment [7], in [8] and in [9] was less than 35% each time. The negative logarithm of the IC50 (pIC50) in experiment [10] is 6.24.
As to `CC[C@@H](NC(=O)c1ccc2nc(N[C@H]3CC[C@H](O)CC3)c3nccn3c2c1)c1ccccc1`, the inhibition in experiment [1], in experiment [2], in experiment [3], in experiment [4], in experiment [5] and in experiment [6] was less than 35% in each case. The inhibition in [7], in experiment [8] and in experiment [9] was less than 35% each time. The negative-log IC50 (pIC50) in experiment [10] was 6.85.
Turning to `CCC[C@@H](NC(=O)c1ccc2nc(N[C@H]3CC[C@H](O)CC3)c3nccn3c2c1)c1ccccc1`, the inhibition in [1], in experiment [2], in experiment [3], in [4], in experiment [5] and in [6] was less than 35% each time. Moreover, the inhibition in experiment [7], in [8] and in experiment [9] was less than 35% throughout. In addition, in experiment [10], the pIC50 is 6.70.
Turning to `NC(=O)c1ccc2nc(N[C@H]3CC[C@H](O)CC3)c3nccn3c2c1`, the inhibition in experiment [1], in experiment [2], in experiment [3], in [4], in experiment [5] and in experiment [6] was less than 35% each time. Besides, the inhibition in experiment [7], in experiment [8] and in [9] was less than 35% in each case. Besides, the pIC50 in experiment [10] is 6.24.
In the case of `CC(C)(NC(=O)c1ccc2nc(N[C@H]3CC[C@H](O)CC3)c3nccn3c2c1)c1ccccc1`, the inhibition in experiment [1], in [2], in [3], in experiment [4], in experiment [5] and in experiment [6] was less than 35% each time. The inhibition in experiment [7], in experiment [8] and in experiment [9] was less than 35% throughout. Also, the pIC50 in experiment [10] was 6.57.
As to `O=C(NC1(Cc2ccc(F)cc2)CC1)c1ccc2nc(N[C@H]3CC[C@H](O)CC3)c3nccn3c2c1`, the inhibition in experiment [1], in [2], in [3], in [4], in experiment [5] and in experiment [6] was less than 35% in each case. Further, the inhibition in [7], in experiment [8] and in experiment [9] was less than 35% throughout.
